Columns and labels:
[1] = tested on: PLZF-retinoic acid receptor-α bone marrow leukaemic cells; experiment: Myeloid differentiation (NBT assay) of PLZF-RARα bone marrow leukaemic cells; type: cell-based, mouse; details: Trichostatin A alone (5 ng/ml)
Method: (§1) Myeloid differentiation was evaluated by performing the nitroblue tetrazolium (NBT) assay, and cell proliferation by measuring DNA synthesis quantitating incorporation of ^3 H-thymidine.
(§2) Differentiation was evaluated performing the nitroblue tetrazolium (NBT) assay and morphological differential count^32. Proliferation of bone marrow cells was evaluated by measuring DNA synthesis quantitating incorporation of ^3 H-thymidine (Amersham). Bone marrow cells were plated at a density of 2×10^6 cells/ml and were pulsed with ^3 H-thymidine at a final concentration of […].

[2] = tested on: PLZF-retinoic acid receptor-α bone marrow leukaemic cells; experiment: Proliferation (3H-thymidine incorporation) of PLZF-RARα bone marrow leukaemic cells; type: cell-based, mouse
Method: as §1, §2

[3] = tested on: PML-retinoic acid receptor-α; experiment: 3XRARE-Luc reporter transfection assay in 293T cells, PML-RARα; type: cell-based, human
Method: (§3) The experiment was performed in medium reconstituted with serum not depleted of endogenous retinoids. Luciferase activity was measured in a scintillation counter and normalized with the internal β-galactosidase standard. […] Note that in panels A and B luciferase activity is expressed by different scales.
(§4) Luciferase activity was normalized with the internal β-galactosidase standard. Values represent the averages of two independent transfections.
(§5) 293T cells and KG1 cells were transfected by calcium phosphate precipitation, and by electroporation as already described^25, and luciferase activity of each sample was normalized against internal control β-galactosidase activity^25.
(§6) Nuclear receptor co-repressors form complexes with histone deacetylases (HDAC1 or 2), resulting in nucleosome assembly and transcriptional repression^15.

[4] = tested on: PLZF-retinoic acid receptor-α; experiment: 3XRARE-Luc reporter transfection assay in 293T cells, PLZF-RARα; type: cell-based, human
Method: as §3, §4, §5, §6

[5] = tested on: acute promyelocytic leukemia; type: in vivo, human; details: Jan. `98 (first line)
Excerpt: The patient used for clinical study is a person who was diagnosed with acute promyelocytic leukemia in 1994.

NB4 cells [6] = experiment: NB4 cell proliferation (3H-thymidine incorporation); type: cell-based, human
Method: (§7) NB4 cells, a line that stably carries the PML/RAR-α fusion protein of acute promyelocytic leukemia^71, were maintained in RPMI1640 medium, which was supplemented with 10% fetal bovine serum and 1% of penicillin-streptomycin, at 37° C. in 5% CO2 atmosphere. Cultures were established at an initial density of 10^5 cells/ml in the presence or absence of drugs at various concentrations. Cellular proliferation was measured by assessment of ^3 H-thymidine incorporation. Aliquots (180 μl) from each culture were placed into 96-well plates in triplicate after 20 hrs of incubation, and 0.5 μCi of ^3 H-thymidine in 20 μl of medium was added to each well. […] The proportion of cells undergoing apoptosis was determined by Annexin V staining^72. Aliquots (1 ml) from each culture were harvested after 48 hrs incubation and the cells were stained with fluorescein isothiocyanate (FITC)-conjugated Annexin V and propidium iodide, according to the manufacturer's instructions (PharMingen, San Diego, Calif.). Annexin V and propidium iodide positivity were analyzed by flow cytometry (Becton-Dickinson, Mountainview, Calif.). Cell viability was measured after 4 days of incubation by using trypan blue exclusion. Cellular differentiation was evaluated at day 4 of incubation using both an assay for nitroblue tetrazolium (NBT) reduction and expression of CD11b (a cell surface differentiation antigen)^73. Briefly, 10^6 cells were harvested and incubated with 0.1% NBT solution in the presence of 12-o-tetradecanoylphorbol 13-acetate (TPA) (0.1 μg/ml) for 1 hr. The pellet of the mixture was then resuspended with 0.04 M HCl/10% SDS and kept at room temperature for 24 hrs. […] For CD11b expression, 10^6 cells were incubated with FITC-conjugated CD11b monoclonal antibody (PharMingen). A FITC-conjugated isotype was used as background control. Expression of CD11b, including percentage of positive cells and the fluorescence intensity, was determined by using flow cytometry (Becton Dickinson).

[7] = Plasma concentrations of phenylbutyrate during clinical infusion; type: in vivo, human
Excerpt: During the post-remission treatment course, blood specimens collected on heparin were serially obtained before and 2, 4, and 6 hrs following a 2-hour infusion of phenylbutyrate for determination of histone acetylation levels in leukocytes.

NB4 cells [8] = experiment: NB4 cell apoptosis (Annexin V flow cytometry); type: cell-based, human
Method: as §7

[9] = tested on: myelodysplasia, myeloid leukemia and solid tumors; details: human, in vivo; cited from earlier work
NB4 cells [10] = experiment: NB4 cell differentiation (CD11b expression and NBT reduction); type: cell-based, human
Method: as §7

[11] = tested on: acetylated histones H3 and H4; experiment: Histone hyperacetylation in patient's blood and bone marrow mononuclear cells (Western, immunofluorescence); type: in vivo, human
Method: Hyperacetylation was detected using antiacetylated H3 or H4 antibodies reacting with histones that were acid-extracted from nucleated cells in peripheral blood before (lane 1) and 2, 4 and 6 hours (lanes 2 to 4) after initiation of the phenylbutyrate infusion, and from bone marrow before (lane 5) and after (lane 6) completion of the infusion. The parallel gel stained with Coomassie blue is a loading control.
Mononuclear cells from the patient's blood and bone marrow were isolated by density centrifugation and were applied on slides by cytospin. The slides were fixed in 95% ethanol/5% acetic acid for 1 min, permeabilized and blocked in 10% goat serum/1% BSA/0.3% Triton X-100/PBS for 40 min. The slides were then incubated with anti-acetylated histone H4 antibody (Upstate Biotechnology, Inc., Lake Placid, N.Y.) for 1 hr. A Texas-red-conjugated IgG was used as a secondary antibody to reveal the positivity; staining with 4',6-diamidino-2-phenylindole (DAPI) was used to reveal nuclei.
Nuclei from separated blood and bone marrow mononuclear cells were isolated by lysis in buffer containing 10 mM Tris-HCl pH 6.5, 50 mM sodium bisulfite, 1% Triton X-100, 10 mM MgCl2, 8.6% sucrose and Dounce homogenization. Histones were isolated by acid extraction^74. Isolated histones ([…]) were then separated on 15% SDS-PAGE minigels (Bio-Rad, Hercules, Calif.) and transferred to nitrocellulose (Schleicher and Schuell, Keene, N.H.). Hyperacetylated histones were detected by antibodies that specifically recognize the hyperacetylated forms of histone H4 and histone H3 (Upstate Biotechnology) and were visualized by chemiluminescence (Pierce, Rockford, Ill.). As a control for the amount of protein loading, parallel gels were stained with Coomassie blue.

NB4 cells [12] = experiment: NB4 cell viability (trypan blue exclusion); type: cell-based, human; details: phenylbutyrate 10 mM, 4 days of culture
Method: NB4 cells, a line that stably carries the PML/RAR-α fusion protein of acute promyelocytic leukemia^71, were maintained in RPMI1640 medium, which was supplemented with 10% fetal bovine serum and 1% of penicillin-streptomycin, at 37° C. in 5% CO2 atmosphere. Cultures were established at an initial density of 10^5 cells/ml in the presence or absence of drugs at various concentrations. Cellular proliferation was measured by assessment of ^3 H-thymidine incorporation. Aliquots (180 μl) from each culture were placed into 96-well plates in triplicate after 20 hrs of incubation, and 0.5 μCi of ^3 H-thymidine in 20 μl of medium was added to each well. […] The proportion of cells undergoing apoptosis was determined by Annexin V staining^72. […] Annexin V and propidium iodide positivity were analyzed by flow cytometry (Becton-Dickinson, Mountainview, Calif.). Cell viability was measured after 4 days of incubation by using trypan blue exclusion. Cellular differentiation was evaluated at day 4 of incubation using both an assay for nitroblue tetrazolium (NBT) reduction and expression of CD11b (a cell surface differentiation antigen)^73. […] The optical density was measured at 540 nm. […] Expression of CD11b, including percentage of positive cells and the fluorescence intensity, was determined by using flow cytometry (Becton Dickinson).

[13] = Trichostatin A alone (not shown)
[14] = retinoic acid 10^-6 M with Trichostatin A 150 nM, 36 hours

Q: Which differentiation [1] does the source give for CC(/C=C/C(=O)NO)=C\[C@@H](C)C(=O)c1ccc(N(C)C)cc1 [Trichostatin A] here?
A: The differentiation was “negligible differentiating effect”.

Q: What about the growth inhibition ([2]; Trichostatin A alone (5 ng/ml)) of the same molecule?
A: Its growth inhibition is “marked growth inhibitory effect”.

Q: What about the transcriptional effect [3, 13] of the same molecule?
A: The transcriptional effect was “negligible transcriptional effects”.

Q: What about the “transactivation of reporter / reversal of transcriptional repression” value [3, 14] of the same molecule?
A: Its value is “reverted the transcriptional repression”.

Q: And the transcriptional effect [4, 13]?
A: Its transcriptional effect is “negligible transcriptional effects”.

Q: What about the “transactivation of reporter / reversal of transcriptional repression” value [4, 14] of the same molecule?
A: Its value is “reverted the transcriptional repression”.

Q: Which Response [5] does the source give for CC(=O)O[C@H]1C(=O)[C@@]2(C)[C@H]([C@H](OC(=O)c3ccccc3)[C@]3(O)C[C@H](OC(=O)[C@H](O)[C@@H](NC(=O)c4ccccc4)c4ccccc4)C(C)=C1C3(C)C)[C@]1(OC(C)=O)CO[C@@H]1C[C@@H]2O [Paclitaxel] here?
A: The Response was “Progression”.

Q: With O=C(O)CCCc1ccccc1 [phenylbutyrate, sodium phenylbutyrate] as the molecule, how does the proliferation (NB4 cells [6]; phenylbutyrate 0.08 mM) read?
A: The proliferation was “no effect”.

Q: What about the proliferation (NB4 cells [6]; phenylbutyrate 0.4 mM) of the same molecule?
A: Its proliferation is “slight growth inhibition”.

Q: What about the proliferation (NB4 cells [6]; phenylbutyrate 2 mM) of the same molecule?
A: The proliferation was “induced growth inhibition”.

Q: What about the proliferation (NB4 cells [6]; phenylbutyrate 10 mM) of the same molecule?
A: Its proliferation is “completely inhibited proliferation”.

Q: What about the “clinical achievability of concentration” value ([7]; 10 mM) of the same molecule?
A: Its value is “not clinically achievable”.

Q: And the Cmax ([7]; human, plasma, 150 mg/kg, patient, intravenous infusion, read-out: peak plasma levels transiently attained after completing the drug infusion)?
A: Its Cmax is about 2000 µM.

Q: And the apoptosis (NB4 cells [8]; phenylbutyrate 0.08 mM)?
A: Its apoptosis is “no effect”.

Q: And the apoptosis (NB4 cells [8]; phenylbutyrate 0.4 mM)?
A: Its apoptosis is “no effects on other parameters”.

Q: What about the induction of apoptosis (NB4 cells [8]; phenylbutyrate 2 mM, 2 days) of the same molecule?
A: The induction of apoptosis was 15%.

Q: What about the apoptosis (NB4 cells [8]; phenylbutyrate 10 mM) of the same molecule?
A: The apoptosis was “induced marked apoptosis”.

Q: What about the clinical usefulness [9] of the same molecule?
A: Its clinical usefulness is “has not been clinically useful”.

Q: And the differentiation (NB4 cells [10]; phenylbutyrate 0.08 mM)?
A: The differentiation was “no effect”.

Q: What about the differentiation (NB4 cells [10]; phenylbutyrate 0.4 mM) of the same molecule?
A: The differentiation was “no effects on other parameters”.

Q: And the differentiation (NB4 cells [10]; phenylbutyrate 2 mM)?
A: Its differentiation is “little effect upon differentiation”.

Q: What about the “magnitude of hyperacetylation (Western analysis)” value ([11]; 6 hours after starting the infusion) of the same molecule?
A: The value was “greatly diminished”.

Q: What about the “acetylated histone H4 (immunofluorescence staining of nuclei)” value ([11]; peripheral blood cells, 6 hours after starting the infusion (approximately 4 hours after discontinuing the drug)) of the same molecule?
A: Its value is “hyperacetylation was still visually evident”.

Q: And the “percentage of positive staining cells and staining intensity, acetylated histone H4” value ([11]; peripheral blood mononuclear cells 0, 2, 4, 6 hours after infusion)?
A: Its value is “progressively increases from baseline up to 6-hours”.

Q: And the “levels of acetylated H3 and H4 (Western blot)” value ([11]; peripheral blood mononuclear cells, two hours after beginning the phenylbutyrate infusion)?
A: The value was “markedly increased”.

Q: What about the viable cells (NB4 cells [12]) of the same molecule?
A: Its viable cells is “no viable cells remained after 4 days of culture”.

Q: Which growth inhibition ([2]; retinoic acid 10^-7 M and 10^-6 M) does the source give for CC1=C(/C=C/C(C)=C/C=C/C(C)=C/C(=O)O)C(C)(C)CCC1 [retinoic acid, all-trans-retinoic acid] here?
A: Its growth inhibition is “little if no effects”.

Q: And the growth inhibition ([2]; retinoic acid 10^-7 M and 10^-6 M, listed as Retinoic acid)?
A: The growth inhibition was “minimal”.

From patent publication US6262116A, “Transcription therapy for cancers” (Sloan-Kettering Institute for Cancer Research, priority 1998, dated 2001)
